The values that follow come from patent US8318928B2, “Fused imidazole carboxamides as TRPV3 modulators” (Glenmark Pharmaceuticals, S.A., priority 2008, dated 2012).

The target in the experiment is T1, Human TRPV3 expressing CHO cells (Homo sapiens, UniProt Q8NET8).
T1 construct: expressed in transfected cells; host or cells: CHO cells, kept under G-418 selection
T1 sequence (Q8NET8 1-790): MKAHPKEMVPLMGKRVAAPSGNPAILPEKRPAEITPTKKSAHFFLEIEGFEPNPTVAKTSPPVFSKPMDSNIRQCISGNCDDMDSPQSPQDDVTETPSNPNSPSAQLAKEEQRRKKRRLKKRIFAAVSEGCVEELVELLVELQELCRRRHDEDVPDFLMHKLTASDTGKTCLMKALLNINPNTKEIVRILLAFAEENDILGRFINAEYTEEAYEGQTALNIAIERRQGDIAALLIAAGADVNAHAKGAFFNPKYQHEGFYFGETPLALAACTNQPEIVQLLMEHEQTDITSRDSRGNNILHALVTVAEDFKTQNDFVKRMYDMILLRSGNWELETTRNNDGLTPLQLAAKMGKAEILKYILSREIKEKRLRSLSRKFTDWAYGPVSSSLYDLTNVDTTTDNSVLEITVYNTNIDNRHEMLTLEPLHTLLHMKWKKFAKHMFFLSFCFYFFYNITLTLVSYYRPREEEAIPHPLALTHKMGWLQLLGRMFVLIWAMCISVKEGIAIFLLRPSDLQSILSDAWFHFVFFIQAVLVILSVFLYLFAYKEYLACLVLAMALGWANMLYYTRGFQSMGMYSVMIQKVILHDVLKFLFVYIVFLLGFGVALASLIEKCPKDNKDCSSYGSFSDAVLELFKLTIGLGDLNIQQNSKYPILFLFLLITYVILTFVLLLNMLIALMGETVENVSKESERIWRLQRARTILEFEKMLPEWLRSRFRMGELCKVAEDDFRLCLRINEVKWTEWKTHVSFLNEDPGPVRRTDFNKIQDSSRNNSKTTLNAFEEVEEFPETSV
As to the kind of experiment: 45Calcium uptake assay: inhibition of 2-APB induced cellular uptake of radioactive calcium. Type of experiment: cell-based. The conditions noted are these: 2-APB 500 μM; for Percentage inhibition at 1.0 μM / inhibition at 1 µM: compound at 1.0 μM; for Percentage inhibition at 10.0 μM / inhibition at 10 µM: compound at 10.0 μM; for inhibition at 1 µM: read-out: Percentage inhibition at 1.0 μM; for inhibition at 10 µM: read-out: Percentage inhibition at 10.0 μM; for IC50: class symbols. The text has this: Certain illustrative compounds within the scope of the present invention are screened for TRPV3 activity according to a modified procedure described in (a) Tóth, A. et al. Life Sciences 2003, 73, 487-498. (b) McNamara C, R. et al. Proc. Natl. Acad. Sci. U.S.A., 2007, 104, 13525-13530. The screening of the compounds may be carried out by other methods and procedures known to persons skilled in the art.
Screening for TRPV3 Antagonist Using the ^45Calcium Uptake Assay
The inhibition of TRPV3 receptor activation was followed as inhibition of 2-aminoethxydiphenylborate (2-APB) induced cellular uptake of radioactive calcium. Test compounds were dissolved in dimethyl sulfoxide (DMSO) to prepare 20 mM stock solution and then diluted using plain medium with DMEM/F-12 containing 1.8 mM CaCl2 to get desired concentration. Final concentration of DMSO in the reaction was 0.5% (v/v). Human TRPV3 expressing CHO cells were grown in DMEM/F-12 medium with 10% FBS, 1% penicillin-streptomycin solution, 400 μg/mL of G-418. Cells were seeded 24 h prior to the assay in 96 well plates so as to get ˜50,000 cells per well on the day of experiment. Cells were treated with test compounds for 10 minutes followed by addition of 2-APB at a final concentration of 500 μM and 5 μCi/mL ^45Ca^+2 for 4 minutes. Cells were washed and lysed using buffer containing 1% Triton X-100, 0.1% deoxycholate and 0.1% SDS. Radioactivity in the lysate was measured in Packardt Top count after addition of liquid scintillant. Concentration response curves were plotted as a % of maximal response obtained in the absence of test antagonist. IC50 value was calculated from concentration response curve by nonlinear regression analysis using GraphPad PRISM software.
Percentage inhibition at concentrations of 1.0 μM and 10.0 μM are given in the table along with IC50 (nM) details for selected examples.

“2-{(E)-2-[3-(Difluoromethoxy)-2-(2,2-dimethylpropoxy)phenyl]vinyl}-N-[4-(trifluoro-methyl)-1,3-thiazol-2-yl]imidazo[1,2-c]pyridine-3-carboxamide [Example 38]”: the “Percentage inhibition at 1.0 μM” value came out at 87.67% and the “Percentage inhibition at 10.0 μM” value worked out at 97.11%.
For orientation: inhibition means the share of the control response that was lost under treatment. As for `COc1cccc(/C=C/c2nc3sccn3c2C(=O)Nc2ccc(OC(F)(F)F)cc2)c1OCC1CC1` [Example 1, 6-[(E)-2-(2-Cyclopropylmethoxy-3-methoxyphenyl)vinyl]-N-[4-(trifluoromethoxy)phenyl]imidazo[2,1-b][1,3]thiazole-5-carboxamide], the inhibition at 1 µM is 9.3% and the inhibition at 10 µM was determined as 38.6%.
The IC50 is the concentration that inhibits the measured activity by half. With `COc1cccc(/C=C/c2nc3sccn3c2C(=O)Nc2nc(C(F)(F)F)cs2)c1OCC1CC1` [Example 2, 6-[(E)-2-(2-Cyclopropylmethoxy-3-methoxyphenyl)vinyl]-N-[4-(trifluoromethyl)-1,3-thiazol-2-yl]imidazo[2,1-b][1,3]thiazole-5-carboxamide], the IC50 is 0.25 to 1 µM, the inhibition at 1 µM stood at 73.2% and the inhibition at 10 µM stood at 97.6%.
Consider `COc1cccc(/C=C/c2nc3sccn3c2C(=O)N2CCCc3ccccc32)c1OCC1CC1` [Example 3, 1-({6-[(E)-2-(2-Cyclopropylmethoxy-3-methoxyphenyl)vinyl]imidazo[2,1-b][1,3]thiazol-5-yl}carbonyl)-1,2,3,4-tetrahydroquinoline], for which the inhibition at 1 µM is 34.6% and the inhibition at 10 µM was found to be 90.6%.
Turning to `COc1cccc(/C=C/c2nc3sccn3c2C(=O)N2CCN(c3ccc(C(F)(F)F)cn3)CC2)c1OCC1CC1` [Example 4, 6-[(E)-2-(2-Cyclopropylmethoxy-3-methoxyphenyl)vinyl]imidazo[2,1-b][1,3]thiazol-5-yl-4-(5-trifluoromethyl-2-pyridyl)piperazinomethanone], the inhibition at 1 µM was 36.2% and the inhibition at 10 µM was found to be 91.7%.
The corresponding values for `COc1cccc(/C=C/c2nc3sccn3c2C(=O)N2CCN(c3ccc(C#N)cn3)CC2)c1OCC1CC1` [Example 5] are 5.32% and 38.2%.
On to `COc1cccc(/C=C/c2nc3sccn3c2C(=O)Nc2nc(C(F)(F)F)cs2)c1OCC(C)C` [Example 6, 6-{(E)-2-[2-(Isobutoxy)-3-methoxyphenyl]vinyl}-N-[4-(trifluoromethyl)-1,3-thiazol-2-yl]imidazo[2,1-b][1,3]thiazole-5-carboxamide], for which the half-maximal inhibitory concentration (IC50) lay within 0.25 to 1 µM, the inhibition at 1 µM stood at 93% and the inhibition at 10 µM worked out at 98.8%.
In the same order, the values of `COc1cccc(/C=C/c2nc3sccn3c2C(=O)Nc2nc(C(F)(F)F)cs2)c1OCC(C)(C)C` [Example 7, 6-{(E)-2-[2-(2,2-Dimethylpropoxy)-3-methoxyphenyl]vinyl}-N-[4-(trifluoromethyl)-1,3-thiazol-2-yl]imidazo[2,1-b][1,3]thiazole-5-carboxamide] are less than 0.1 µM, 95.5% and 99.5%.
In the same order, the values of `COc1cccc(/C=C/c2nc3sccn3c2C(=O)Nc2nc(C(C)(C)C)cs2)c1OCC(C)(C)C` [Example 8, 6-{(E)-2-[2-(2,2-Dimethylpropoxy)-3-methoxyphenyl]vinyl}-N-[4-(tert-butyl)-1,3-thiazol-2-yl]imidazo[2,1-b][1,3]thiazole-5-carboxamide] are less than 0.1 µM, 88.1% and 91.1%.
In the same order, the values of `COc1cccc(/C=C/c2nc3sccn3c2C(=O)Nc2nc(C)cs2)c1OCC(C)(C)C` [Example 10, 6-{(E)-2-[2-(2,2-Dimethylpropoxy)-3-methoxyphenyl]vinyl}-N-(4-methyl-1,3-thiazol-2-yl)imidazo[2,1-b][1,3]thiazole-5-carboxamide] are 0.25 to 1 µM, 69.3% and 80.6%.
Take `CCN(C(=O)c1c(/C=C/c2cccc(OC)c2OCC(C)(C)C)nc2sccn12)c1nc(C(F)(F)F)cs1` [Example 11, N-Ethyl-6-{(E)-2-[2-(2,2-dimethylpropoxy)-3-methoxyphenyl]vinyl}-N-[4-(trifluoro-methyl)-1,3-thiazol-2-yl]imidazo[2,1-b][1,3]thiazole-5-carboxamide]: the IC50 was less than 0.1 µM, the inhibition at 1 µM was determined as 75.1% and the inhibition at 10 µM was found to be 84.8%.
Regarding `COc1cccc(/C=C/c2nc3sccn3c2C(=O)Nc2nnc(C(F)(F)F)s2)c1OCC(C)(C)C` [Example 12, 6-{(E)-2-[2-(2,2-Dimethylpropoxy)-3-methoxyphenyl]vinyl}-N-[5-(trifluoromethyl)-1,3,4-thiadiazol-2-yl]imidazo[2,1-b][1,3]thiazole-5-carboxamide], the inhibition at 1 µM was found to be 13.3% and the inhibition at 10 µM stood at 82.8%.
As to `COc1cccc(/C=C/c2nc3sccn3c2C(=O)Nc2nc(C(F)(F)F)co2)c1OCC(C)(C)C` [Example 13, 6-{[(E)-2-(2,2-Dimethylpropoxy)-3-methoxyphenyl]vinyl}-N-[4-(trifluoromethyl)-1,3-oxazol-2-yl]imidazo[2,1-b][1,3]thiazole-5-carboxamide], the “Percentage inhibition at 1.0 μM” value worked out at 10.75% and the “Percentage inhibition at 10.0 μM” value came to 31.51%.
For the compound `COc1cccc(/C=C/c2nc3sccn3c2C(=O)N2CCn3c(nnc3C(F)(F)F)C2)c1OCC(C)(C)C` [Example 14], the “Percentage inhibition at 1.0 μM” value was 10.33% and the “Percentage inhibition at 10.0 μM” value worked out at 15.45%.
In the case of `COc1cccc(/C=C/c2nc3sccn3c2C(=O)Nc2nc(-c3ccc(C#N)cc3)cs2)c1OCC(C)(C)C` [Example 15, N-[4-(4-Cyanophenyl)-1,3-thiazol-2-yl]-6-{(E)-2-[2-(2,2-dimethylpropoxy)-3-methoxyphenyl]vinyl}imidazo[2,1-b][1,3]thiazole-5-carboxamide], the inhibition at 1 µM is 20.7% and the inhibition at 10 µM was 26.6%.
For `COc1cccc(/C=C/c2nc3sccn3c2C(=O)Nc2nc(C(F)(F)F)cs2)c1OC1CCCC1` [Example 16, 6-[(E)-2-(2-Cyclopentyloxy-3-methoxyphenyl)vinyl]-N-[4-(trifluoromethyl)-1,3-thiazol-2-yl]imidazo[2,1-b][1,3]thiazole-5-carboxamide], the IC50 is 0.25 to 1 µM, the inhibition at 1 µM is 81.7% and the inhibition at 10 µM came to 93.1%.
Consider `O=C(Nc1nc(C(F)(F)F)cs1)c1c(/C=C/c2cccc(OC(F)F)c2OC2CCCC2)nc2sccn12` [Example 17, 6-{(E)-2-[2-Cyclopentyloxy-3-(difluoromethoxy)phenyl]vinyl}-N-[4-(trifluoromethyl)-1,3-thiazol-2-yl]imidazo[2,1-b][1,3]thiazole-5-carboxamide], for which the IC50 is 0.25 to 1 µM, the inhibition at 1 µM was determined as 85.3% and the inhibition at 10 µM is 94.6%.
The corresponding values for `CC(C)(C)COc1c(/C=C/c2nc3sccn3c2C(=O)Nc2nc(C(F)(F)F)cs2)cccc1OC(F)F` [Example 18, 6-{(E)-2-[3-Difluoromethoxy-2-(2,2-dimethylpropoxy)phenyl]vinyl}-N-[4-(trifluoro-methyl)-1,3-thiazol-2-yl]imidazo[2,1-b][1,3]thiazole-5-carboxamide] are less than 0.1 µM, 96.9% and 98.2%.
